Source: patent US8741330B2, “Transluminal drug delivery methods and devices” (priority 2006, dated 2014)
Counter-ions that a name gives are not always drawn.

Experiments:
[1] = PDR 1997 p. 564; cited from earlier work
[2] = 5 and 10 ml of water
[3] = Blood pressure / hemodynamic monitoring after urethral suppository (Example 1); conditions: rabbit, urethral suppository approx. 100 mg lidocaine

SMILES | maximum recommended adult dose [1] | effect of fluid volume on pH of lidocaine/sodium bicarbonate [2] | hemodynamic changes [3]
CCN(CC)CC(=O)Nc1c(C)cccc1C [lidocaine hydrochloride] | 4.5 mg/kg | – | –
CCN(CC)CC(=O)Nc1c(C)cccc1C [lidocaine] | – | does not appear to have a major effect | No significant hemodynamic changes
